Experimental data taken from patent US20220281848A1, “PYRAZOLE-SUBSTITUTED PYRROLIDINONES AS HERBICIDES” (FMC Corporation, priority 2019, published 2022).

System: plants
Assay: Test D pre-emergence, other plants of Tables D1 and D3
Assay type: in vivo
Conditions: 20 DAA; for damage to plant (100=total damage to plant; 0=no damage to plant), BIDPI / damage to plant (100=total damage to plant; 0=no damage to plant), BRAPL / damage to plant (100=total damage to plant; 0=no damage to plant), CYPES / damage to plant (100=total damage to plant; 0=no damage to plant), EPHHL / damage to plant (100=total damage to plant; 0=no damage to plant), GLXMA / damage to plant (100=total damage to plant; 0=no damage to plant), IPOHE / damage to plant (100=total damage to plant; 0=no damage to plant), SORVU: preemergent; for CHEAL damage rating / GALAP damage rating / KCHSC damage rating / LOLPE damage rating / POAAN damage rating / STEME damage rating / VERPE damage rating: pre-emergence, 100=total damage, 0=no damage
How it was run: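 Damage was rated visually from 0 (none) to 100 (total), at 20 DAA for pre-emergence and 15 d for post-emergence. Plants grew from safener-treated seed in a glasshouse at 24/18° C. or 20/16° C. day/night, 65% humidity, watered twice daily.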

CN1CC(c2cc(C(F)(F)F)n(C)n2)C(C(=O)Nc2cccc(F)n2)C1=O (racemic) [Compound 24]
damage to plant (100=total damage to plant; 0=no damage to plant), BIDPI (rate 15): 0 | damage to plant (100=total damage to plant; 0=no damage to plant), BIDPI (rate 30): 0 | damage to plant (100=total damage to plant; 0=no damage to plant), BIDPI (rate 60): 0 | damage to plant (100=total damage to plant; 0=no damage to plant), BIDPI (rate 130): 0 | damage to plant (100=total damage to plant; 0=no damage to plant), BIDPI (rate 250): 0 | damage to plant (100=total damage to plant; 0=no damage to plant), BIDPI (rate 500): 0 | damage to plant (100=total damage to plant; 0=no damage to plant), BRAPL (rate 15): 0 | damage to plant (100=total damage to plant; 0=no damage to plant), BRAPL (rate 30): 20 | damage to plant (100=total damage to plant; 0=no damage to plant), BRAPL (rate 60): 30 | damage to plant (100=total damage to plant; 0=no damage to plant), BRAPL (rate 130): 80 | damage to plant (100=total damage to plant; 0=no damage to plant), BRAPL (rate 250): 80 | damage to plant (100=total damage to plant; 0=no damage to plant), BRAPL (rate 500): 90 | CHEAL damage rating (Rates 15): 0 | CHEAL damage rating (Rates 30): 0 | CHEAL damage rating (Rates 60): 0 | CHEAL damage rating (Rates 130): 0 | CHEAL damage rating (Rates 250): 40 | CHEAL damage rating (Rates 500): 50 | damage to plant (100=total damage to plant; 0=no damage to plant), CYPES (rate 15): 0 | damage to plant (100=total damage to plant; 0=no damage to plant), CYPES (rate 30): 0 | damage to plant (100=total damage to plant; 0=no damage to plant), CYPES (rate 60): 0 | damage to plant (100=total damage to plant; 0=no damage to plant), CYPES (rate 130): 0 | damage to plant (100=total damage to plant; 0=no damage to plant), CYPES (rate 250): 0 | damage to plant (100=total damage to plant; 0=no damage to plant), CYPES (rate 500): 0 | damage to plant (100=total damage to plant; 0=no damage to plant), EPHHL (rate 15): 0 | damage to plant (100=total damage to plant; 0=no damage to plant), EPHHL (rate 30): 0 | damage to plant (100=total damage to plant; 0=no damage to plant), EPHHL (rate 60): 0 | damage to plant (100=total damage to plant; 0=no damage to plant), EPHHL (rate 130): 0 | damage to plant (100=total damage to plant; 0=no damage to plant), EPHHL (rate 250): 0 | damage to plant (100=total damage to plant; 0=no damage to plant), EPHHL (rate 500): 10 | GALAP damage rating (Rates 15): 0 | GALAP damage rating (Rates 30): 0 | GALAP damage rating (Rates 60): 0 | GALAP damage rating (Rates 130): 0 | GALAP damage rating (Rates 250): 0 | GALAP damage rating (Rates 500): 0 | damage to plant (100=total damage to plant; 0=no damage to plant), GLXMA (rate 15): 0 | damage to plant (100=total damage to plant; 0=no damage to plant), GLXMA (rate 30): 0 | damage to plant (100=total damage to plant; 0=no damage to plant), GLXMA (rate 60): 0 | damage to plant (100=total damage to plant; 0=no damage to plant), GLXMA (rate 130): 0 | damage to plant (100=total damage to plant; 0=no damage to plant), GLXMA (rate 250): 0 | damage to plant (100=total damage to plant; 0=no damage to plant), GLXMA (rate 500): 0 | damage to plant (100=total damage to plant; 0=no damage to plant), IPOHE (rate 15): 0 | damage to plant (100=total damage to plant; 0=no damage to plant), IPOHE (rate 30): 0 | damage to plant (100=total damage to plant; 0=no damage to plant), IPOHE (rate 60): 0 | damage to plant (100=total damage to plant; 0=no damage to plant), IPOHE (rate 130): 0 | damage to plant (100=total damage to plant; 0=no damage to plant), IPOHE (rate 250): 0 | damage to plant (100=total damage to plant; 0=no damage to plant), IPOHE (rate 500): 0 | KCHSC damage rating (Rates 15): 0 | KCHSC damage rating (Rates 30): 0 | KCHSC damage rating (Rates 60): 0 | KCHSC damage rating (Rates 130): 0 | KCHSC damage rating (Rates 250): 0 | KCHSC damage rating (Rates 500): 10 | LOLPE damage rating (Rates 15): 0 | LOLPE damage rating (Rates 30): 0 | LOLPE damage rating (Rates 60): 0 | LOLPE damage rating (Rates 130): 0 | LOLPE damage rating (Rates 250): 0 | LOLPE damage rating (Rates 500): 10 | POAAN damage rating (Rates 15): 0 | POAAN damage rating (Rates 30): 0 | POAAN damage rating (Rates 60): 0 | POAAN damage rating (Rates 130): 0 | POAAN damage rating (Rates 250): 20 | POAAN damage rating (Rates 500): 40 | damage to plant (100=total damage to plant; 0=no damage to plant), SORVU (rate 15): 0 | damage to plant (100=total damage to plant; 0=no damage to plant), SORVU (rate 30): 0 | damage to plant (100=total damage to plant; 0=no damage to plant), SORVU (rate 60): 0 | damage to plant (100=total damage to plant; 0=no damage to plant), SORVU (rate 130): 0 | damage to plant (100=total damage to plant; 0=no damage to plant), SORVU (rate 250): 0 | damage to plant (100=total damage to plant; 0=no damage to plant), SORVU (rate 500): 0 | STEME damage rating (Rates 15): 0 | STEME damage rating (Rates 30): 0 | STEME damage rating (Rates 60): 0 | STEME damage rating (Rates 130): 0 | STEME damage rating (Rates 250): 10 | STEME damage rating (Rates 500): 70 | VERPE damage rating (Rates 15): 0 | VERPE damage rating (Rates 30): 0 | VERPE damage rating (Rates 60): 0 | VERPE damage rating (Rates 130): 0 | VERPE damage rating (Rates 250): 50 | VERPE damage rating (Rates 500): 60
